This note sets out measurements from patent publication US8680110B2, “P2X4 receptor antagonist” (Nippon Chemiphar Co., Ltd., priority 2010, dated 2014).

Counter-ions that a name gives are not always drawn.

By IC50 is commonly meant the concentration needed to halve the response being measured.

The target in the assay is T1, human P2X4 receptors (Homo sapiens, UniProt Q99571).
T1 sequence (Q99571 1-388): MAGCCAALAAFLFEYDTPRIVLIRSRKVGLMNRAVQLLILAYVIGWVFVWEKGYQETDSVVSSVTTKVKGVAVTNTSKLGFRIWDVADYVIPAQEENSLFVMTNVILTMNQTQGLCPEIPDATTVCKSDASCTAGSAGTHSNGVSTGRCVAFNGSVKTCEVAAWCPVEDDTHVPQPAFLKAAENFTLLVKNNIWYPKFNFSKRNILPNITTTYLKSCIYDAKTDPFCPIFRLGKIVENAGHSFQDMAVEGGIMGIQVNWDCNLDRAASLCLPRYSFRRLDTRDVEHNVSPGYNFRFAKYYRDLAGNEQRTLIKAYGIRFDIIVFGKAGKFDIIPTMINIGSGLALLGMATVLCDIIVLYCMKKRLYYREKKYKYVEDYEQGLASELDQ
Kind of assay: P2X4 receptor antagonism, intracellular calcium assay (Fura-2 AM) in 1321N1 cells. The conditions noted are these: 1321N1 cells stably expressing human P2X4 receptors; compound added 15 minutes before ATP; ATP-induced calcium influx; read-out: Inhibition activities (IC50 μM). In kind it is cell-based. Here is the method:
1321N1 cells stably expressing human P2X4 receptors were plated in 96-well assay plate and cultured 24 hours at 37° C. in an atmosphere of 5% CO2 for intracellular calcium assay. Fura-2 AM calcium fluorescent indicator was used for the intracellular calcium assay. Fura-2 AM was dissolved in an assay buffer, and the solution was loaded onto cells. The obtained plate was used for fluorescent assay. Test compounds were treated to cells 15 minutes before the addition of ATP, and the response to intracellular calcium influx induced by addition of ATP was monitored by a micro plate reader. The fluorescence ratio of excitations wavelengths of 340 nm and 380 nm was used as the index of intracellular calcium change. The inhibition activities of the test compounds were calculated by comparison with the absence of the test compound (control).
P2X4 receptor antagonism of the compound of the present invention was measured as described below. […]
Test compounds were treated to cells 15 minutes before the addition of ATP, and the response to intracellular calcium influx induced by addition of ATP was monitored by a micro plate reader. The fluorescence ratio of excitations wavelengths of 340 nm and 380 nm was used as the index of intracellular calcium change. The inhibition activities of the test compounds were calculated by comparison with the absence of the test compound (control).
For orientation: Calcium assays in cells follow changes in intracellular calcium, usually with a dye or a luminescent sensor.

On to `O=c1nc(-c2cccc(-c3nnn[nH]3)c2)c2ccc3ccccc3c2[nH]1` [Example 2, 4-[3-(1H-Tetrazol-5-yl)phenyl]-1H-benzo[h]quinazolin-2-one sodium salt], for which the IC50 was 0.16 µM.
